The numbers were not newly measured in patent publication US20260014105A1, “POWDER MIXTURE COMPRISING REPARIXIN” (Dompe' Farmaceutici SPA, priority 2022, published 2026), which cites them from elsewhere.

The data set relates to hospitalized patients with severe COVID-19 pneumonia.

On to `CC(C)Cc1ccc([C@@H](C)C(=O)NS(C)(=O)=O)cc1` [reparixin, R-(−)-2-(4-isobutylphenyl)propionyl methansulfonamide], for which the “Clinical outcomes compared with the standard of care” value is recorded as “improved clinical outcomes”.
